Experimental data as given in PMC9247194, “Mapping of the sGC Stimulator BAY 41-2272 Binding Site on H-NOX Domain and Its Regulation by the Redox State of the Heme” (Frontiers in Cell and Developmental Biology, 2022).

Molecular target: T1, Ns H-NOX (Nostoc sp. PCC 7120 = FACHB-418, UniProt A0ACD6B960, C139A)
T1 construct: gene alr2278
Assay: 1H-15N HSQC NMR titration (chemical shift perturbation)
Format: binding
Conditions: 298 K; heme-bound, no NO; surface site next to heme; one KD per perturbed residue

T1 sequence (A0ACD6B960 entry or part of it C139A): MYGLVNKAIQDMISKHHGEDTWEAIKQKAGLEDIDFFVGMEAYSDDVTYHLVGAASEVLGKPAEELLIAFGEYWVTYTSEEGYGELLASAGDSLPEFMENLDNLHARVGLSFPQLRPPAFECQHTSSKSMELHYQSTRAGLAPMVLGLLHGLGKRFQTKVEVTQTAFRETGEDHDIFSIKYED

For `Nc1nc(-c2nn(Cc3ccccc3F)c3ncccc23)ncc1C1CC1` [BAY 41-2272], the KD was “yielding the binding constant (K D ) for each residue”.
